{
  "source": "BigSolDB 2.1",
  "data": [
    {"smiles": "O=C(O)[C@H]1O[C@@H](Oc2cc3oc(-c4ccccc4)cc(=O)c3c(O)c2O)[C@H](O)[C@@H](O)[C@@H]1O", "values": [
      {"measurement": "solubility (mole fraction)", "setting": "in ethanol, 278.15 K", "value": 0.000171},
      {"measurement": "solubility (mole fraction)", "setting": "in ethanol, 283.15 K", "value": 0.000176},
      {"measurement": "solubility (mole fraction)", "setting": "in ethanol, 288.15 K", "value": 0.000181},
      {"measurement": "solubility (mole fraction)", "setting": "in ethanol, 293.15 K", "value": 0.000186},
      {"measurement": "solubility (mole fraction)", "setting": "in ethanol, 298.15 K", "value": 0.000191},
      {"measurement": "solubility (mole fraction)", "setting": "in ethanol, 303.15 K", "value": 0.000196},
      {"measurement": "solubility (mole fraction)", "setting": "in ethanol, 308.15 K", "value": 0.000202},
      {"measurement": "solubility (mole fraction)", "setting": "in ethanol, 313.15 K", "value": 0.000205},
      {"measurement": "solubility (mole fraction)", "setting": "in ethanol, 318.15 K", "value": 0.000212},
      {"measurement": "solubility (mole fraction)", "setting": "in isopropanol, 278.15 K", "value": 0.000676},
      {"measurement": "solubility (mole fraction)", "setting": "in isopropanol, 283.15 K", "value": 0.000855},
      {"measurement": "solubility (mole fraction)", "setting": "in isopropanol, 288.15 K", "value": 0.00112},
      {"measurement": "solubility (mole fraction)", "setting": "in isopropanol, 293.15 K", "value": 0.00145},
      {"measurement": "solubility (mole fraction)", "setting": "in isopropanol, 298.15 K", "value": 0.00191},
      {"measurement": "solubility (mole fraction)", "setting": "in isopropanol, 303.15 K", "value": 0.00246},
      {"measurement": "solubility (mole fraction)", "setting": "in isopropanol, 308.15 K", "value": 0.00314},
      {"measurement": "solubility (mole fraction)", "setting": "in isopropanol, 313.15 K", "value": 0.00392},
      {"measurement": "solubility (mole fraction)", "setting": "in isopropanol, 318.15 K", "value": 0.00472},
      {"measurement": "solubility (mole fraction)", "setting": "in methanol, 278.15 K", "value": "8.11e-05"},
      {"measurement": "solubility (mole fraction)", "setting": "in methanol, 283.15 K", "value": "9.11e-05"},
      {"measurement": "solubility (mole fraction)", "setting": "in methanol, 288.15 K", "value": 0.000101},
      {"measurement": "solubility (mole fraction)", "setting": "in methanol, 293.15 K", "value": 0.000113},
      {"measurement": "solubility (mole fraction)", "setting": "in methanol, 298.15 K", "value": 0.000127},
      {"measurement": "solubility (mole fraction)", "setting": "in methanol, 303.15 K", "value": 0.000143},
      {"measurement": "solubility (mole fraction)", "setting": "in methanol, 308.15 K", "value": 0.000157},
      {"measurement": "solubility (mole fraction)", "setting": "in methanol, 313.15 K", "value": 0.000171},
      {"measurement": "solubility (mole fraction)", "setting": "in methanol, 318.15 K", "value": 0.000192},
      {"measurement": "solubility (mole fraction)", "setting": "in n-propanol, 278.15 K", "value": 0.000768},
      {"measurement": "solubility (mole fraction)", "setting": "in n-propanol, 283.15 K", "value": 0.00101},
      {"measurement": "solubility (mole fraction)", "setting": "in n-propanol, 288.15 K", "value": 0.00133},
      {"measurement": "solubility (mole fraction)", "setting": "in n-propanol, 293.15 K", "value": 0.00171},
      {"measurement": "solubility (mole fraction)", "setting": "in n-propanol, 298.15 K", "value": 0.00224},
      {"measurement": "solubility (mole fraction)", "setting": "in n-propanol, 303.15 K", "value": 0.00289},
      {"measurement": "solubility (mole fraction)", "setting": "in n-propanol, 308.15 K", "value": 0.00363},
      {"measurement": "solubility (mole fraction)", "setting": "in n-propanol, 313.15 K", "value": 0.00451},
      {"measurement": "solubility (mole fraction)", "setting": "in n-propanol, 318.15 K", "value": 0.00551},
      {"measurement": "solubility (mole fraction)", "setting": "in water, 278.15 K", "value": "2.38e-06"},
      {"measurement": "solubility (mole fraction)", "setting": "in water, 283.15 K", "value": "3.13e-06"},
      {"measurement": "solubility (mole fraction)", "setting": "in water, 288.15 K", "value": "4.35e-06"},
      {"measurement": "solubility (mole fraction)", "setting": "in water, 293.15 K", "value": "5.8e-06"},
      {"measurement": "solubility (mole fraction)", "setting": "in water, 298.15 K", "value": "7.49e-06"},
      {"measurement": "solubility (mole fraction)", "setting": "in water, 303.15 K", "value": "9.78e-06"},
      {"measurement": "solubility (mole fraction)", "setting": "in water, 308.15 K", "value": "1.27e-05"},
      {"measurement": "solubility (mole fraction)", "setting": "in water, 313.15 K", "value": "1.59e-05"},
      {"measurement": "solubility (mole fraction)", "setting": "in water, 318.15 K", "value": "2.03e-05"}
    ]}
  ]
}
